In US20030216257A1, “1-aryl-4-alkyl halide-2(1h)-pyridones and their use as herbicides” (priority 2000, published 2003):

Assays:
Experiment in all cases: Greenhouse experiments, herbicidal action (pre-/post-emergence treatment)
Format in all cases: in vivo
Conditions in all cases: post-emergence rate 0.0313 and 0.0156 kg of a.S./ha, scale 0 to 100
COMBE (dayflower) = test system: COMBE (dayflower)
Text: (§1) The culture containers used were plastic pots with loamy sand containing approximately 3.0% of humus as the substrate. The seeds of the test plants were sown separately for each species.
(§2) For the pre-emergence treatment, the active compounds, which had been suspended or emulsified in water, were applied directly after seeding by means of finely distributing nozzles. The containers were irrigated gently to promote germination and growth and subsequently covered with transparent plastic hoods until the plants had taken root. This cover causes uniform germination of the test plants unless this was not adversely affected by the active compounds.
(§3) For the post-emergence treatment, the test plants were initially grown to a height of 3 to 15 cm, depending on the habit, and then treated with the active compounds which had been suspended or emulsified in water. To this end, the test plants were either sown directly and cultivated in the same containers, or they were initially cultivated separately as seedlings and transplanted into the test containers a few days prior to the treatment. The application rate for the post-emergence treatment was 0.0313 and 0.0156 kg of a. S./ha.
(§4) The plants were kept at temperatures of 10-25° C. and 20-35° C., depending on the species. The test period extended over 2 to 4 weeks. During this time, the plants were tended, and their reaction to the individual treatments was evaluated.
(§5) Evaluation was carried out using a scale from 0 to 100. 100 means no emergence of the plants, or complete destruction of at least the above-ground parts, and 0 means no damage or normal course of growth.
(§6) The plants used in the greenhouse experiments were of the following species: […]

SETFA (giant foxtail) = test system: SETFA (giant foxtail)
Text: as §1, §2, §3, §4, §5, §6

[1] = test system: GALAP (catchweed bedstraw)
Text: as §1, §2, §3, §4, §5, §6

ABUTH (velvet leaf) = test system: ABUTH (velvet leaf)
Text: as §1, §2, §3, §4, §5, §6

AMARE (redroot pigweed) = test system: AMARE (redroot pigweed)
Text: as §1, §2, §3, §4, §5, §6

Measured: herbicidal activity against harmful plant

CC(C)OC(=O)c1cc(-n2c(Cl)cc(C(F)(F)F)cc2=O)c(F)cc1Cl [Example 1, Isopropyl 2-Chloro-5-[2-chloro-6-oxo-4-(trifluoromethyl)-1-(6H)-pyridinyl]-4-fluorobenzoate]
very good activity: all assays above
